Earlier results as cited in patent US10539496B2, “Instrument and method for optical particle sensing” (Invitrox, Inc., priority 2011, dated 2020).

Tested on: platelets
Conditions: platelet inhibition in arterial thrombophilic diseases; share of drug-treated patients

| SMILES | treated patients who do not respond to treatment |
| --- | --- |
| CC(=O)Oc1ccccc1C(=O)O [ASA, Aspirin] | Approximately 25% |
| COC(=O)[C@H](c1ccccc1Cl)N1CCc2sccc2C1 [Plavix, clopidogrel bisulfate] | ~29% |
